Here are results for 8 molecules from article PMC12498411, “Antidepressant-like Properties of a Selenium-Containing Pyridinium Salt Explored through In Vitro, In Vivo, and In Silico Approaches” (ACS Chemical Neuroscience, 2025).

A word on the pIC50: it is −log10 of the IC50, conventionally taken in molar units. A high value points to a low IC50.

In data set [1] the test system is male Swiss mice. In words: Open field test (OFT) before the TST. The data set is classed as in vivo, mouse. To be noted: 3B 0.5–5 mg/kg i.g.; fluoxetine 20 mg/kg i.p. On the procedure:
(§1) A dosage of 5 mg/kg (intragastric route, i.g., by gavage) was administered to all groups receiving the salts. […] The TST was conducted 30 min following drug administration, with the OFT being performed 4 min prior to the TST.
(§2) Following the selection of the most promising salt during screening (Compound 3B), an analysis of the compound’s time-response curve was conducted in the mouse TST. For this purpose, the animals were divided into five groups: (I) control (water; i.g.), (II) the group receiving compound 3B 15 min prior to TST, (III) the group receiving compound 3B 30 min before TST, (IV) the group receiving compound 3B 60 min before TST, and (V) the group receiving compound 3B 120 min before TST. The dosage of salt was standardized at 5 mg/kg (i.g). OFT was conducted 4 min prior to the TST.
(§3) After choosing a suitable preadministration time, the dose–response curve of the compound at this fixed time was analyzed. The animals were categorized into […]: I) a control group (administered water; i.g.) and groups II, III, IV and V) receiving compound 3B at doses of 0.5 mg/kg, 1 mg/kg, 2.5 mg/kg, and 5 mg/kg (i.g.), respectively. […] Thirty minutes postadministration, the animals underwent the TST. Four minutes prior to the TST, they underwent the OFT.
The aim of this behavioral test is to assess the locomotion and exploration behavior of the animals using an open field apparatus measuring 30 cm × 30 cm × 15 cm, constructed from plywood with a floor divided into nine quadrants, facilitating free movement for the animals. During the OFT, the animals were positioned in the center of the apparatus and subjected to a 5 min testing period, following the protocol outlined in literature. The number of quadrant crossings and rearings was recorded and quantified during testing phase.

Data set [2] relates to male Swiss mice. Description: Tail suspension test (TST). Type of data set: in vivo, mouse. The method, then:
A behavioral screening was conducted using the three salts to determine their potential antidepressant-like actions (n = 7–9 mice/group).
as §1, §2, §3
This test aims to assess depressive-like behavior and antidepressant-like action of therapies by measuring immobility. […] The test was conducted using a mouse suspension box made of wood, measuring 50 cm × 21 cm × 21 cm, designed to prevent any visual or physical interaction among the animals. A suspension bar was positioned atop the box, and the mouse’s tail was affixed to the bar using adhesive tape. The test duration was 6 min, during which the animal’s latency to the first immobility episode and the total duration of immobility (sec) were assessed.

A further data set has as its system rodent. The note with it: literature value, cited from earlier work.
The conditions of data set [3]: cited from earlier work.
In the next data set the test system is protein carbonylation. Description: Protein carbonylation assay, SNP-induced, brain homogenate. Type of data set: biochemical, mouse. The method, then:
(§4) Brains from mice of both sexes were used for in vitro assays, each performed in duplicate across three independent experiments (n = 3), conducted on different days.
The evaluation of protein carbonylation was performed according to a previously established protocol, using freshly prepared brain homogenate diluted at a 1:8 ratio in Tris-HCl buffer. Test compounds (10 μL), ranging in concentrations from 25 to 200 μM, were individually introduced into separate test tubes. Trolox (100 μM) served as the standard antioxidant. The diluted brain homogenate (940 μL) was then added to all tubes, followed by SNP (1 mM) as the inducing oxidative agent (50 μL). The tubes were promptly incubated at 37 °C for 2 h. Following incubation, 2 M HCl was added to blank tubes (200 μL), while 10 mM 2,4-dinitrophenyl-hydrazine (DNPH) solution was added to test tubes (200 μL). The mixture was incubated for 1 h in darkness at room temperature, with intermittent stirring every 15 min to facilitate the color reaction. Subsequently, 500 μL of denaturation buffer, 1.5 mL of ethanol, and 1.5 mL of hexane were added to all tubes, which were then vigorously shaken for 40 s. The tubes were then centrifuged at 900g for 15 min, and the supernatant was carefully decanted. The resulting pellet was washed twice with 1 mL of ethanol/ethyl acetate solution (1:1). After allowing the pellet to dry air for 2 min, it was resuspended in 1 mL of denaturation buffer and subjected to spectrophotometric analysis at 370 nm. The findings were quantified as nmol carbonyl per gram of tissue.

For data set [4], the system named is cerebral lipid peroxidation. Description: TBARS assay, SNP-induced lipid peroxidation in brain homogenate. The data set is classed as biochemical, mouse. The note with it: for Concentrations effective in reversing SNP-induced oxidative damage (TBARS): tested up to 500 μM. The method, then: as §4
The brain tissues were homogenized in a 50 mM Tris-HCl buffer at pH 7.4, using a 1:10 ratio (w/v). The freshly prepared homogenate was then centrifuged at 900g for 10 min, yielding a low-speed supernatant (S1). Lipid peroxidation was evaluated using the TBARS method as previously described. Lipid peroxidation was induced by 0.3 mM SNP. A 100 μL aliquot of S1 was incubated for 1 h at 37 °C in the presence of the compounds 3A, 3B, and 3C at concentrations ranging from 25 to 500 μM, and SNP or water (to control). The color reaction was initiated by adding 500 μL of a 0.8% thiobarbituric acid (TBA) solution, followed by 200 μL of 8.1% sodium dodecyl sulfate (SDS) and 500 μL of acetic acid (pH 3.4). The reaction mixture was incubated at 95 °C for 1 h. The absorbance was measured using a spectrophotometer at a wavelength of 532 nm. Trolox (100 μM), an antioxidant analogous to vitamin E, served as a positive control. The results were reported as nmol TBARS per gram of tissue. A parallel TBARS experiment was also conducted using a standard alkyl aryl selenide (2-((phenylselanyl)-methyl)-pyridine), dissolved in DMSO at the same concentrations tested, ranging from 25 to 500 μM.

A further data set deals with female Swiss mice. Also noted: method as in previously conducted by our research group. To be noted: same methodology layout; ref previously conducted by our research group; cited from earlier work.
The target of the next data set is T1, MAO-B (Mus musculus, UniProt Q8BW75).
T1 construct: Mitochondria-enriched brain preparations were obtained in accordance with established methodology outlined in literature; from tissue; host or cells: mouse brain, mitochondria-enriched fraction
T1 sequence (Q8BW75 1-520): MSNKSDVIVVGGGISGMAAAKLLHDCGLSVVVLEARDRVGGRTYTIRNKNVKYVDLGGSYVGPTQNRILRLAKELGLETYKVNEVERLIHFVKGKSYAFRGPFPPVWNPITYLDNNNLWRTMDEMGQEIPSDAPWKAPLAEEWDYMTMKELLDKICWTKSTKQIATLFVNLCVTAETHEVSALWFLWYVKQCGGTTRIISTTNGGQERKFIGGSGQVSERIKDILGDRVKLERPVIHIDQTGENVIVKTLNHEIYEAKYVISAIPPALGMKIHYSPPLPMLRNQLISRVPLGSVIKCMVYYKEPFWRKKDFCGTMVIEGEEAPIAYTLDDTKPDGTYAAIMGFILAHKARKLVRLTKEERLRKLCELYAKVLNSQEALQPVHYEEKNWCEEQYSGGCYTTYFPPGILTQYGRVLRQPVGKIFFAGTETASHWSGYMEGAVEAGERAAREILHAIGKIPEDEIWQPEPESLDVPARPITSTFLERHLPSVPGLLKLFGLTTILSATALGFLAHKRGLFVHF
In words: Cerebral MAO-B activity, mitochondria-enriched mouse brain fraction (kynuramine, fluorimetric). Type of data set: biochemical. On the procedure: (§5) Mitochondria-enriched brain preparations were obtained in accordance with established methodology outlined in literature. The homogenate was prepared using the mouse brain tissue and a homogenization buffer (Na2PO4/KH2PO4/sucrose) at a ratio of 1:4 (w/v). The homogenate was centrifuged at 900g at 4 °C for 5 min. The resulting supernatant was separated and subjected to centrifugation at 12,500g for 15 min. The resulting pellet was resuspended in the homogenization buffer and subjected to a further round of centrifugation under identical conditions. Finally, the mitochondrial pellet obtained was reconstituted in an assay buffer solution (Na2PO4/KH2PO4/KCl). Protein concentration was estimated using the Bradford method and standardized as 1 mg/mL for the experiments.
(§6) MAO activity was assessed following the method outlined by Krajl, with some modifications by Matsumoto. Briefly, a 100 μL aliquot of the mitochondria-rich fraction was incubated at 37 °C for 5 min with specific MAO inhibitors: clorgyline (250 nM, a MAO-A inhibitor), or pargyline (250 nM, a MAO-B inhibitor). Then, 10 μL of each compound was introduced at varying concentrations (25–200 μM). Water (10 μL) was used in the control tubes. Afterward, the substrate, 20 μL of kynuramine dihydrobromide, was added to achieve a final concentration of 90 μM for MAO-A and 60 μM for MAO-B. The samples were incubated at 37 °C for 30 min. The reaction was halted by the addition of 300 μL of 10% trichloroacetic acid (TCA). After centrifuging at 16,000g for 15 min, an aliquot of 800 μL of the supernatant was mixed with 1 mL of 1 M sodium hydroxide (NaOH). The samples were measured using a fluorimeter with excitation at 315 nm and emission at 380 nm.

The target in a further data set is T2, MAO-A (Mus musculus, UniProt Q64133).
T2 construct: Mitochondria-enriched brain preparations were obtained in accordance with established methodology outlined in literature; from tissue; host or cells: mouse brain, mitochondria-enriched fraction
T2 sequence (Q64133 1-526): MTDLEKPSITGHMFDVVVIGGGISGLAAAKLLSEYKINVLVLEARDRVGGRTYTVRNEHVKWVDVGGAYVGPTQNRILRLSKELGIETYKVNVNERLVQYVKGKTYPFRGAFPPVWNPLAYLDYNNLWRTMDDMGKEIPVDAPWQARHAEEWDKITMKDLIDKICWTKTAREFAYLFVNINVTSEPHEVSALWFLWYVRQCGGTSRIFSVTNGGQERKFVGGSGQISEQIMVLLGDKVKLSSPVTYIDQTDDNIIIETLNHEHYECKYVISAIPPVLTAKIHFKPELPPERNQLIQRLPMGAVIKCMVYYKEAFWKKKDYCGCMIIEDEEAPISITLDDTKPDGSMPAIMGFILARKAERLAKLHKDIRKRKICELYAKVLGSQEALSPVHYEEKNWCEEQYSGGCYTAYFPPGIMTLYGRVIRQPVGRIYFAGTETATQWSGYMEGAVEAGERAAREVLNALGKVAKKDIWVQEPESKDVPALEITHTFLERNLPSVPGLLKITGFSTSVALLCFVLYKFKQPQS
In words: Cerebral MAO-A activity, mitochondria-enriched mouse brain fraction (kynuramine, fluorimetric). The data set is classed as biochemical. The method, then: as §5, §6

Details of data set [5]: method as in Prigol and colleagues. To be noted: ref Prigol and colleagues; cited from earlier work.
On the set-up of data set [6]: method as in Prigol and colleagues. To be noted: 500 mg/kg dissolved in oil, per oral; ref Prigol and colleagues; cited from earlier work.
Setting [7] is: salts 5 mg/kg i.g., fluoxetine 20 mg/kg i.p., 30 min before test.

pIC50: −log10 of the molar value. Where two headings read alike, the source gives them in different places.

On to `CNCCC(Oc1ccc(C(F)(F)F)cc1)c1ccccc1` (stereo not drawn) [Fluoxetine, reference compound], for which the “OFT number of rearings, dose–response experiment” value in the data set on male Swiss mice [1] was “decreased rearings”. In the data set on male Swiss mice [2] (20 mg/kg i.p., 30 min), the “TST immobility time, positive control in dose–response experiment” value is given as “effectively reduced the immobility time” and the “TST latency time, positive control in dose–response experiment” value is on record as “as also observed in the fluoxetine group”. In the data set with male Swiss mice [2] (setting [7]), the “TST latency time to first immobility episode, screening” value is recorded as “significantly increased latency time” and the “TST total immobility time, screening” value is “shorter total immobility times”. In addition, in the data set with rodent (30 mg/kg), the “Reduction in rodent locomotor activity” value is 89%.

For `c1ccc([Se]c2c(-c3ccccc3)cn3ccccc23)cc1` [2-phenyl-1-(phenylselanyl)indolizine], in data set [3], the “Effective dose (previously studied related molecule)” value is recorded as not below 10 mg/kg.

Turning to `O=C(C[n+]1ccccc1C[Se]c1ccccc1)c1ccc(Cl)cc1.[Br-]` [Compound 3C, 1-(2-(4-chlorophenyl)-2-oxoethyl)-2-((phenylselanyl)methyl)pyridin-1-ium bromide], the pIC50 in the data set on protein carbonylation (mouse brain homogenate, SNP-induced, 25–200 μM) is 3.96; in [4] (mouse brain homogenate, SNP-induced), 3.99; against MAO-B it was 3.90; at MAO-A, 4.11. Further, the “Concentrations effective in reversing SNP-induced oxidative damage (TBARS)” value in data set [4] (mouse brain homogenate) lay within 50 to 500 µM. For the same molecule, in the data set with female Swiss mice, the “Signs of toxicity in acute oral toxicity study” value is given as “no signs of toxicity”. In addition, the “Concentrations with significant inhibition of MAO-A activity” value on MAO-A (tested 25–200 μM, Dunnett vs control) was not below 50 µM.

As for `c1ccc([Se][Se]c2ccccc2)cc1` [(PhSe)2, diphenyl diselenide], the “Solubility in isotonic phosphate buffer” value in data set [5] is “poor solubility in isotonic phosphate buffer”. Besides, the “Selenium levels in plasma” value in [6] is “very low levels of selenium in plasma”.

Take `COc1ccc(C(CN(C)C)C2(O)CCCCC2)cc1` (stereo not drawn) [venlafaxine]: the “Reduction in rodent locomotor activity” value in the data set with rodent (50 mg/kg) is 62%.

Consider `Cc1c(C)c2c(c(C)c1O)CCC(C)(C(=O)O)O2` (stereo not drawn) [Trolox, reference compound], for which, in the data set on protein carbonylation (100 μM), the “Effect of positive control on protein carbonylation” value is “effective”. In addition, the “Effect of positive control on SNP-induced TBARS” value in [4] (100 μM) is on record as “effectively reversed oxidative damage”.

`c1ccc([Se]Cc2ccccn2)cc1` [2-((phenylselanyl)methyl)pyridine, reference compound]: in data set [4] (mouse brain homogenate), the “Concentrations effective in reversing SNP-induced oxidative damage (TBARS)” value was found to be 500 µM.

Take `CN(C)CC/C=C1\c2ccccc2CSc2ccccc21` [dothiepin]: the “Reduction in rodent locomotor activity” value with rodent (10 mg/kg) is 73%.
